Laboratory results from patent US20050209157A1, “Short bioactive peptides and methods for their use” (priority 2001, published 2005).
≈ marks a conversion by molar mass, not a printed value. Where “and” joins values, the source holds several entries; their conditions need not be identical. Equal values may be shown once. Read-outs that look alike come from different tables or passages of the source. No end group written: not given here.

Tests used:
S. pyogenes M76 = assay: Antimicrobial assays II, NCCLS broth microdilution MIC; type: cell-based, Streptococcus pyogenes; conditions: mean of three; 16 to 20 hours at 35° C.
P. aeruginosa H374 [1] = type: cell-based, Pseudomonas aeruginosa; conditions: for MIC Cm-comb.: MIC of chloramphenicol with peptide at ¼ MIC; for MIC Nal-comb.: MIC of nalidixic acid with peptide at ¼ MIC; for FIC Index: 0.5 or less = synergy
Summary of the method: (§1)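 FIC index, computed as 0.25 plus the ratio of combination to single-agent antibiotic MIC, defines synergy when 0.5 or below. Peptide fixed at one quarter MIC while chloramphenicol or nalidixic acid was serially diluted two-fold; antibiotic-alone MICs served as baselines.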

P. aeruginosa H774 = type: cell-based, Pseudomonas aeruginosa; conditions: P. aeruginosa H744; nalidixic acid + peptide at ¼ MIC; 0.5 or less = synergy
Summary of the method: as §1

P. aeruginosa = type: cell-based, Pseudomonas aeruginosa; conditions: P. aeruginosa H744; MIC of nalidixic acid with peptide at ¼ MIC
Summary of the method: as §1

S. pneumoniae C718 = assay: Antimicrobial assays II, NCCLS broth microdilution MIC; type: cell-based, Streptococcus pneumoniae; conditions: mean of three
[2] = tested on: Staphylococcus aureus ATCC 6538; assay: Antimicrobial assay I, MIC by OD measurement; type: cell-based; conditions: 37° C. for 24 hours, absorbance 620 nm
[3] = tested on: Pseudomonas aeruginosa ATCC 9027; assay: Antimicrobial assay I, MIC by OD measurement; type: cell-based; conditions: 37° C. for 24 hours, absorbance 620 nm
S. pneumoniae C719 = assay: Antimicrobial assays II, NCCLS broth microdilution MIC; type: cell-based, Streptococcus pneumoniae; conditions: mean of three, in µg/mL
S. aureus (MRSA) = type: cell-based, Staphylococcus aureus; conditions: for S. aureus (MRSA) MIC: mean of three, 16 to 20 hours at 35° C.; for MIC S. aureus SAP0017: Table 13, strain SAP0017, in µg/mL
P. acne ATCC 6919 = assay: Antimicrobial assays II, NCCLS broth microdilution MIC; type: cell-based, Propionibacterium acnes; conditions: mean of three, in µg/mL
S. epidermidis C621 = type: cell-based, Staphylococcus epidermidis; conditions: for S. epidermidis C621 MIC: mean of three, 16 to 20 hours at 35° C.; for MIC S. epidermis C621: Table 13, in µg/mL
[4] = tested on: yeast (Saccharomyces cerevisiae); assay: Antimicrobial assay I, yeast assay in RPMI 1640; type: cell-based; conditions: RPMI 1640 media
S. pyogenes ATCC19615 = assay: Antimicrobial assays II, NCCLS broth microdilution MIC; type: cell-based, Streptococcus pyogenes; conditions: mean of three, in µg/mL
in vitro [5] = conditions: human, WI38 normal lung fibroblast cells, LD50 WI38, WI38 normal lung fibroblast line, MTT, 24 hours with peptide
WI38 = conditions: MTT, 24 hours with peptide; normal fibroblast line
MCF7 = assay: Anti-cancer assay, MTT, LD50; type: cell-based; conditions: MCF7 breast adenocarcinoma line, MTT, 24 hours with peptide
Excerpt: (§2) Numbers are LD50 values (μg/mL).

H1299 = assay: Anti-cancer assay, MTT, LD50; type: cell-based; conditions: 24 hours with peptide, lung large cell carcinoma
Excerpt: as §2

HeLaS3 = assay: Anti-cancer assay, MTT, LD50; type: cell-based; conditions: 24 hours with peptide, cervical carcinoma
Excerpt: as §2

SW480 = assay: Anti-cancer assay, MTT, LD50; type: cell-based; conditions: SW480 colon adenocarcinoma line, 24 hours with peptide
Excerpt: as §2

PC3 = assay: Anti-cancer assay, MTT, LD50; type: cell-based; conditions: 24 hours with peptide, prostate adenocarcinoma
Excerpt: as §2

BMKC = assay: Anti-cancer assay, MTT, LD50; type: cell-based; conditions: BMKC cloned melanoma line, 24 hours with peptide
Excerpt: as §2

in vitro [6] = type: cell-based, human; conditions: human, human red blood cells, pH 7, hemolytic assay, concentration at 50% hemolysis, 1 hour at 37° C.; read-out: LD50
[7] = tested on: Pseudomonas aeruginosa H187; type: cell-based; conditions: in µg/mL
S. typhimurium 14028S = type: cell-based, Salmonella typhimurium; conditions: Table 12
[8] = tested on: Candida glabrata ATCC15126; assay: Antimicrobial assays II, NCCLS broth microdilution MIC; type: cell-based; conditions: Table 13; in µg/mL
Candida albicans 105 = type: cell-based; conditions: Table 13; in µg/mL
E. coli UB1005 = type: cell-based, Escherichia coli; conditions: Table 12
[9] = tested on: Pseudomonas aeruginosa 105663; type: cell-based; conditions: Table 9; in µg/mL
[10] = tested on: Pseudomonas aeruginosa 100609; type: cell-based; conditions: Table 9; in µg/mL
P. aeruginosa H374 [11] = type: cell-based, Pseudomonas aeruginosa; conditions: in µg/mL
[12] = chloramphenicol + peptide at ¼ MIC
[13] = nalidixic acid + peptide at ¼ MIC, FIC=0.25+MIC comb/MIC alone

Compound	S. pyogenes M76 MIC (S. pyogenes M76) [µg/mL]	MIC Cm-comb. (P. aeruginosa H374 [1]) [µg/mL]	MIC Nal-comb. (P. aeruginosa H374 [1]) [µg/mL]	FIC Index (P. aeruginosa H374 [1]; [12])	FIC Index (P. aeruginosa H374 [1]; [13])	FIC Index (P. aeruginosa H774)	MIC Nal-comb. (P. aeruginosa) [µg/mL]	S. pneumoniae MIC (S. pneumoniae C718) [µg/mL]	S. pneumoniae MIC (S. pneumoniae C719)	S. aureus (MRSA) MIC (S. aureus (MRSA)) [µg/mL]	P. acne MIC (P. acne ATCC 6919)	S. epidermidis C621 MIC (S. epidermidis C621) [µg/mL]	S. pyogenes MIC (S. pyogenes ATCC19615)	CC50 at 24 h (in vitro [5]) [µg/mL]	WI38 LD50 (WI38) [µg/mL]	LD50 MCF7 (MCF7) [µg/mL]	H1299 LD50 (H1299)	HeLaS3 LD50 (HeLaS3)	LD50 SW480 (SW480)	HC50 at 1 h (in vitro [6]) [µg/mL]	further results
FAKLLALALKKAL-NH2 [P97, FAKLLALALKKAL-NH2]	4	16	5000	1.25	1.25	0.375	78	32	16 and 32	8	8 and 16	4	4 and 8								staph6538 (MIC) [2]: 5 µg/mL; paerug9027 (MIC) [3]: 50 µg/mL; yeast (MIC or MFC) [4]: 50 µg/mL
CC[C@H](C)[C@H](NC(=O)CNC(=O)[C@H](CC(C)C)NC(=O)[C@H](CCCCN)NC(=O)[C@H](C)NC(=O)[C@H](CC(C)C)NC(=O)[C@H](C)NC(=O)[C@@H](NC(=O)[C@H](CCCCN)NC(=O)[C@H](C)NC(=O)[C@@H](NC(=O)[C@@H](N)CCCCN)[C@@H](C)CC)C(C)C)C(=O)NCC(=O)N[C@@H](C)C(=O)N[C@H](C(=O)N[C@@H](CC(C)C)C(=O)N[C@@H](CCCCN)C(=O)N[C@H](C(=O)N[C@@H](CC(C)C)C(=O)N[C@H](C(=O)N[C@H](C(=O)NCC(=O)N[C@@H](CC(C)C)C(N)=O)[C@@H](C)O)[C@@H](C)O)C(C)C)C(C)C [P105]	16							64	32	32	16	8	16	430 (≈ 189 µM)	430	635	> (> indicates greater than 1000)	> (> indicates greater than 1000)	> (> indicates greater than 1000)		staph6538 (MIC) [2]: 200 µg/mL; paerug9027 (MIC) [3]: 200 µg/mL; yeast (MIC or MFC) [4]: > (> indicates greater than 200 μg/mL)
FAKKLAKKLKKLAKKLAKKWKL-OH [P72]	16	8	2500	0.75	0.75	0.75	312	> 128	16	16	2	4	16	125	125	93	160 µg/mL	240 µg/mL	82 µg/mL	110	PC3 LD50 (PC3): 63 µg/mL; LD50 BMKC (BMKC): 290 µg/mL
VALALKALKKLLKKLKKLAKKAL-NH2 [P510]	8	4	625	0.5	0.375	1.25	624	64	16	8	2	4	8							10	
FALLKALLKKAL-NH2 [P177, FALLKALLKKAL-NH2]	8	8	5000	0.75	1.25	0.75	312	32	16	8	8	4	4	270		190			310 µg/mL	400	LD50 BMKC (BMKC): 310 µg/mL
CC(C)C[C@H](NC(=O)[C@H](C)NC(=O)[C@H](CC(C)C)NC(=O)[C@H](C)NC(=O)[C@H](CC(C)C)NC(=O)[C@H](CCCCN)NC(=O)[C@H](C)NC(=O)[C@H](CC(C)C)NC(=O)[C@H](CCCCN)NC(=O)[C@H](CCCCN)NC(=O)[C@H](C)NC(=O)[C@H](CC(C)C)NC(=O)[C@H](CCCCN)NC(=O)[C@H](C)NC(=O)[C@H](CC(C)C)NC(=O)[C@H](CCCCN)NC(=O)[C@H](CCCCN)NC(=O)[C@H](C)NC(=O)[C@@H](N)C(C)C)C(N)=O [P504]	8	16	5000	1.25	1.25	2.25	1248	64	8	4	4	4	16							70	
FALKALKKLKKALKKAL-NH2 [P153 (115)]																					MIC P. aeruginosa H187 ([7]; Table 9): 8; MIC P. aeruginosa H187 ([7]; Table 12): 8; MIC S. typhimurium 14028S (S. typhimurium 14028S): 8 µg/mL; MIC S. aureus SAP0017 (S. aureus (MRSA)): 16; MIC C. glabrata ATCC15126 [8]: 16; MIC C. albicans 105 (Candida albicans 105): 16; MIC E. coli UB1005 (E. coli UB1005): 8 µg/mL; MIC S. epidermis C621 (S. epidermidis C621): 4; MIC P. aeruginosa Tb 105663 [9]: 8; MIC P. aeruginosa Tb 100609 [10]: 8; MIC P. aeruginosa H374 (P. aeruginosa H374 [11]; Table 9): 4; MIC P. aeruginosa H374 (P. aeruginosa H374 [11]; Table 12): 4
FAKKFAKKFKKFAKKFAKFAFAF-NH2 [P301, reference compound]	8	16	625				624	> 128	8	8	2	4	8		66	64	77 µg/mL	170 µg/mL	76 µg/mL	10	PC3 LD50 (PC3): 45 µg/mL; LD50 BMKC (BMKC): 140 µg/mL
FAKLLAKLAKKVL-NH2 [P124 (86)]																					MIC P. aeruginosa H187 ([7]; Table 9): 32; MIC P. aeruginosa H187 ([7]; Table 12): 32; MIC S. typhimurium 14028S (S. typhimurium 14028S): 16 µg/mL; MIC S. aureus SAP0017 (S. aureus (MRSA)): 8; MIC C. glabrata ATCC15126 [8]: 16; MIC C. albicans 105 (Candida albicans 105): 16; MIC E. coli UB1005 (E. coli UB1005): 16 µg/mL; MIC S. epidermis C621 (S. epidermidis C621): 4; MIC P. aeruginosa Tb 105663 [9]: 64; MIC P. aeruginosa Tb 100609 [10]: 64; MIC P. aeruginosa H374 (P. aeruginosa H374 [11]; Table 9): 16; MIC P. aeruginosa H374 (P. aeruginosa H374 [11]; Table 12): 16
